We go through 1 molecule from US20260131033A1, “RADIOLABELED FRUCTOSE DERIVATIVES FOR MEDICAL IMAGING” (Yellowbird Diagnostics Inc., priority 2023, published 2026).

The subject of series [1] is heterotopic HepG2 xenograft mouse model. In words: Comparative PET/CT biodistribution in heterotopic HepG2 xenograft mouse model. The class given is in vivo. To be noted: PET/CT. As to the method:
After the confirmation of cell uptake and intracellular trapping of [U^13C]4-FDF, and the successful production of the radiofluorinated analog, the biodistribution of [^18F]4-FDF was evaluated in a heterotopic HepG2 xenograft mouse model and compared to the biodistribution of [^18F]6-FDF and [^18F]FDG. PET/CT images shown are the summed images from 20-45 min after intravenous injection of (FIG. 4A) [^18F]4-FDF, (FIG. 4B) [^18F]6-FDF, or (FIG. 4C) [^18F]FDG. Sagittal, coronal, and maximum intensity projection (MIP) are shown, in addition to axial sections at the level of the brain, heart, liver/kidneys, and hips. […] Purple represents an increase in AUC and blue represents a decrease in AUC. The values are normalized fold-change in AUC.
Eight-week-old female nu/nu mice were inoculated with 10×10^6 HepG2 cells suspended in 50% Matrigel:DMEM subcutaneously under the left shoulder. Within 3-weeks of implantation, mice were imaged by PET/CT.
PET/CT Imaging. PET/CT imaging was carried out on a Bruker Si78PET/CT scanner with a 4-position hotel having adjustable isoflurane and respiratory monitoring for each position (Bruker USA). Tail veins were catheterized, and an anatomical CT was acquired over the whole of the mouse bodies using the “rat” settings. PET acquisition was started just prior to a bolus i.v. injection of approximately 200 μCi of radiotracer. Dynamic scans were acquired in list mode format over 45 min and sorted into 16×0.5-mm sinogram bins for image reconstruction (4×15 s, 4×60 s and 8×300 s). Iterative reconstruction was performed using 3D ordered-subsets expectation maximization (3D-OSEM) followed by fast maximum a posteriori (fastMAP) using Paravision 360 software v.3.4 (Bruker, USA). Four-mouse images were split into individual mice, and the bed was removed using PMOD v (Bruker, USA). VivoQuant v.2022 (InviCRO) was used for visualization of radioradiotracer uptake in tissues, to define the three-dimensional (3D) volumes of interest (VOI) and for 3D-visualisation to create volume rendering technique images. The count densities were averaged for all volumes of interest at each time point to obtain a time versus activity curve (TAC). Tumor and tissue TACs were normalized to injected dose, measured by a CRC-15 PET dose calibrator (Capintec, Inc., NJ, USA), and expressed as percentage injected dose per cubic centimeter of tissue (% ID/cc).

For another series, the system named is concussed mouse brain. In words: PET/CT imaging of mice after closed-head concussive impact. In kind it is in vivo, Balb/C mice. As to the method:
Arrowhead indicates approximate location and direction of concussive blow. Mice were either left without head impact (Naïve), or received a single closed-head impact vertically at bregma 48 hrs prior to imaging. […] Average images from 20-40 min after the commencement of the scan are shown.

For series [2], the system named is mouse model of systemic inflammation (LPS). Nature of the series: [^18F]4-FDF PET/CT in LPS mouse model of systemic inflammation. In kind it is in vivo. How it is done:
In order to further investigate whether a fructolytic switch occurs in inflammatory neural and cardiac tissues, a mouse model of systemic inflammation was examined. [^18F]4-FDF PET/CT was performed on mice receiving vehicle (FIG. 5A) or bacterial cell wall LPS (FIG. 5B) 24 hr after injection. Sagittal, coronal, MIP, and axial sections of the brain, heart and muscle are shown. Time-activity curves (TAC) for brain (FIG. 5C), heart (FIG. 5D), and muscle (FIG. 5E) are shown for mice receiving vehicle (−LPS) or LPS (+LPS). Solid lines are the means and dotted lines are standard deviation. […] The plots show individual data points (circles), mean (long line) and s.d. (vertical line). * p<0.05 by ANOVA followed by Tukey's test.
Mice receiving saline vehicle (FIG. 5A) or intraperitoneal bacterial cell wall lipopolysaccharide (LPS), as previously described (FIG. 5B; Shrum, B. et al., 2014), were imaged by [^18F]4-FDF PET/CT 24 hr after injection. […] The low uptake of [^18F]4-FDF in healthy brain and heart contributed to an increased signal-to-noise ratio for the mapping of cardio- and neuroinflammation in tissues that are otherwise highly glycolytic and have high [^18F]FDG uptake in the absence of disease (FIG. 4C).
Eight-week-old male Balb/C mice received 5 mg/kg LPS through intraperitoneal injection 24-hr prior to planned PET/CT imaging. Mice were supported by being warmed, and by being given fluids subcutaneously 12 hr after LPS injection. The mice were monitored and scored for severity of response to LPS as described previously (Shrum, B. et al., 2014).
PET/CT Imaging. PET/CT imaging was carried out on a Bruker Si78PET/CT scanner with a 4-position hotel having adjustable isoflurane and respiratory monitoring for each position (Bruker USA). Tail veins were catheterized, and an anatomical CT was acquired over the whole of the mouse bodies using the “rat” settings. […] Tumor and tissue TACs were normalized to injected dose, measured by a CRC-15 PET dose calibrator (Capintec, Inc., NJ, USA), and expressed as percentage injected dose per cubic centimeter of tissue (% ID/cc).

Series [3] is described as follows: Image-based dosimetry using OLINDA software. The class given is in vivo. The settings on record: all tissues, Balb/C mice, relative to [^18F]-2-fluoro-2-deoxyglucose. How it is done: Image-based dosimetry was evaluated in Balb/C mice (n=4) using OLINDA software. […] The bottom plot is a zoom of the y-axis from the top plot.
Setting [4] is: HepG2 xenograft mice, intravenous injection.
Setting [5] is: 5 mg/kg LPS i.p., imaged 24 hr after injection, vs vehicle.

The molecule `OC[C@H]1OC(O)(CO)[C@@H](O)[C@@H]1[18F]` (stereo partly shown) [[^18F]4-FDF, [^18F]-4-fluoro-4-deoxyfructose] yielded a bone uptake in series [1] (HepG2 xenograft mice) of less than 2 % ID/g. Further, in series [1] (setting [4]), the excretion route result is “renal exceeding hepatobiliary excretion” and the “tumor accumulation / pattern of radiotracer retention” value is on record as “accumulate in the tumor”. Besides, in series [1] (compared with [^18F]FDG), the “accumulation in normal mouse tissues” value is “lower than that observed with [^18F]FDG”. In addition, the “retention in naïve brain” value in the series on concussed mouse brain (naïve Balb/C mice, average images 20-40 min) is recorded as “limited retention”. In the series with concussed mouse brain (single closed-head impact at bregma 48 h prior to imaging, images 20-40 min), the “brain retention following concussion” value is reported as “enhanced radiotracer retention”. In series [2] (setting [5]), the “brain uptake following LPS treatment” value is “significant increase” and the “cardiac uptake following LPS treatment” value is “significant increase”. Besides, in series [2] (healthy brain and heart, PET/CT), the “uptake in healthy brain and heart” value is reported as “low uptake”. Also, in series [3], the organ dose deposition entry was “less than or equal to the dose deposition for [^18F]-2-fluoro-2-deoxyglucose”.
